14 compounds from patent publication US10100047B2, “Piperidine derivatives as orexin receptor antagonist” (SHANGHAI HAIYAN PHARMACEUTICAL TECHNOLOGY CO., LTD., priority 2014, dated 2018) can be followed below.

One test concerns the target T1, hOX2R (Homo sapiens, UniProt O43614).
T1 construct: expressed in transfected cells
T1 sequence (O43614 1-444): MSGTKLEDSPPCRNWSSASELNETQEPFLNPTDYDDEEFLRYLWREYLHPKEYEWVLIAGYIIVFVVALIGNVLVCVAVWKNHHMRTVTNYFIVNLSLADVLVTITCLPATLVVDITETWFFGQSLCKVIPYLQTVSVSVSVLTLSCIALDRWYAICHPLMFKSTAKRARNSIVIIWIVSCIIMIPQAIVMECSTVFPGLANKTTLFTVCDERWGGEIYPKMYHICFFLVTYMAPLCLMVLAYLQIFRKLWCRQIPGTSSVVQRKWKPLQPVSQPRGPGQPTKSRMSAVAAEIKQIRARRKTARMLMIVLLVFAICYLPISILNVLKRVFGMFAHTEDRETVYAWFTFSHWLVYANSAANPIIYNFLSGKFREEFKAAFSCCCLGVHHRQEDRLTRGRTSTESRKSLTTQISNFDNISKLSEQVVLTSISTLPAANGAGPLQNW
Kind of test: In vitro test of OX2R: calcium signal change in cells detected with FLIPR. Format: cell-based. Conditions: HEK293-OX2 stable cell strain, Fluo-4 AM calcium signal, Orexin A at EC70. The method, then:
(§1) The inhibitive effect of a compound on OX1 and OX2 GPCR receptor was evaluated by detecting calcium signal change in cells with FLIPR, and IC50 value of compound was used as an indication.
(§2) Experimental Materials: • Cell line: HEK293-OX1 and OX2 stable cell strain • HEK293-OX1 cell culture media (DMEM, Invitrogen#11960-044, 10% serum Gibco#10099141, L-Glutamine 1×, Gibco#25030, sodium pyruvate 1×, Gibco #11360, Geneticin 300 μg/ml, Gibco #10131). • HEK293-OX2 cell culture media (DMEM, Invitrogen#11960-044, 10% serum Gibco#10099141, L-Glutamine 1×, Gibco#25030, sodium pyruvate 1×, Gibco #11360, Geneticin 300 μg/ml, Gibco #10131, Blasticin 2 μg/ml, Invitrogen # R21001). • Pancreatic enzyme (Invitrogen, #25200-072) • DPBS (Hyclone, #SH30028.01B) • Fluo-4 AM, Invitrogen# F14202 • F-127, Invitrogen # P3000MP • Probenecid, Sigma # P8761 • 384-well cell plate, Greiner #781946 • 384-well compound plate, Greiner #781280 • CO2 incubator, Thermo#371 • Centrifuge, Eppendorf #5810R • Vi-cell cytometry, Beckman Coulter • POD 810 Plate Assembler Automatic microplate pretreatment system • Labcyte FLIPR, Molecular Device.
(§3) a) cell inoculation (HEK293-OX1 and HEK293-OX2 cells) • 1) The medium trypsin, and DPBS were preheated at 37° C. under water bath. Culture medium of cells was sucked and cells were washed with 10 mL DPBS. • 2) The preheated trypsin was added into the culture bottle which was rotated so that trypsin uniformly covered the bottle. It was placed in an incubator (37° C., 5% CO2) to digest for 1-2 minutes; • 3) Each T150 was suspended with 10-15 mL of culture medium, and centrifuged at 800 rpm for 5 minutes. Cells were resuspended with 10 mL medium, and 1 mL of the cell re-suspension was sucked out and counted with Vi-cell cytometry. • 4) The OX1 cells were diluted with culture medium to 5×10^5 cells/mL, and OX2 cells were diluted to 4×10^5 cells/mL. The diluted cells were added into 384 plate (Greiner. 781946) with multichannel pipettes (50 μL/hole, OX1 cells: 25000 cells/hole; and OX2 cells: 20000 cells/hole). The cell plate was placed in an incubator (37° C., 5% CO2) overnight.
(§4) b) loading of the compound: • 1) DMSO was used to dilute the compound into 20 mM by using 3-fold dilution. 8 gradients in duplicate wells were used. Echo liquid handler was used to add the compound into a compound plate. Then 20 μL buffer was added to ensure that the final DMSO concentration was 0.1%.
(§5) c) FLIPR Experiment: • 1) The cell culture medium in 384-well plate was washed away with a vacuum pump. 30 μL fluorescent dye Fluo4AM was added. […] 8 gradients in duplicate wells were used. Then the DMSO plate was prepared and the DMSO concentration was 0.5%. The cell plate, Orexin A plate, and DMSO plate were placed into FLIPR respectively, and the fluorescence values were read. • 3) EC70 value was calculated based on EC50 value of Orexin A. 5×EC70 solution was prepared and added into a 384-well compound plate with multichannel pipettes. The plate was placed on ice for preservation. • 4) In the FLIPR, the compound plate, 5×EC70 plate, cell plate and FLIPR tips were placed respectively. The program was run and the fluorescence values were read.
(§6) d) Data Analysis: Prism5.0 was used to analysis the data, and the IC50 value of the compound was calculated.

The target of another test is T2, hOX1R (Homo sapiens, UniProt O43613).
T2 construct: expressed in transfected cells
T2 sequence (O43613 1-425): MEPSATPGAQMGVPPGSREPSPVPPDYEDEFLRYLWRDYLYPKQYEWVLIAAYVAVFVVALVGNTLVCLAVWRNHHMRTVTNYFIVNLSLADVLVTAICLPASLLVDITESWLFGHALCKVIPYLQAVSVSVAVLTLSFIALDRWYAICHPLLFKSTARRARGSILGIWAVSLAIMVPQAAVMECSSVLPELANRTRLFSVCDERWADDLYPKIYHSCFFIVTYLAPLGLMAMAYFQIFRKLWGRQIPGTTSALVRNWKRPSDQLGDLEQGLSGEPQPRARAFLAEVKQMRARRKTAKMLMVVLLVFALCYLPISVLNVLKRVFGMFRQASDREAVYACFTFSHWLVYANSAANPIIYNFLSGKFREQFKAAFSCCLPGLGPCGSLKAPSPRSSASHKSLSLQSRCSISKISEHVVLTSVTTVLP
Put plainly: In vitro test of OX1R: calcium signal change in cells detected with FLIPR. Conditions: HEK293-OX1 stable cell strain, Fluo-4 AM calcium signal, Orexin A at EC70. Format: cell-based. The method, then: as §1, §2, §3, §4, §5, §6

[1] abbreviates: read-out: IC50 detected in FLIPR, hOX2R.
Setting [2] is: read-out: IC50 detected in FLIPR, hOX1R.

Where two headings read alike, the source gives them in different places.

For the compound `Cc1ccc(-c2ncccn2)c(C(=O)N2C[C@H](COc3ccc(F)cn3)CC[C@H]2C)c1` [MK6096, reference compound], the IC50 at hOX2R (setting [1]) came out at 29 nM; at hOX1R (setting [2]) it was 36 nM.
With `Cc1ccc(-c2cccnc2)c(C(=O)N2C3CCC2[C@@H](COc2ccc(F)cn2)CC3)c1` (stereo partly shown) [Example 33], the IC50 is 24 nM on hOX2R (IC50 detected in FLIPR, hOX2R) and 10 nM on hOX1R (IC50 detected in FLIPR, hOX1R).
`Cc1ccc(-c2ncccn2)c(C(=O)N2C3CCC(COc4ccc(F)cn4)C2CC3)c1` (single isomer, unassigned) [Example 7]: the IC50 at hOX2R (setting [1]) is 291 nM; at hOX1R (setting [2]), 1270 nM.
On to `Cc1ccc(-c2ncccn2)c(C(=O)N2C3CC[C@H]2CC[C@@H]3COc2cccnc2)c1` [Example 31], for which the IC50 at hOX2R (IC50 detected in FLIPR, hOX2R) was 221 nM; on hOX1R (IC50 detected in FLIPR, hOX1R), 305 nM.
On to `Cc1ccc(-n2nccn2)c(C(=O)N2C3CCC(COc4ccc(F)cn4)C2CC3)c1` (single isomer, unassigned) [Example 3], for which the IC50 at hOX2R (setting [1]) stood at 1420 nM; on hOX1R (setting [2]) it was 2070 nM.
`Cc1ccc(-c2ccncc2)c(C(=O)N2C3CC[C@H]2CC[C@@H]3COc2ccc(F)cn2)c1` [Example 13]: the IC50 turned out to be 663 nM on hOX2R (IC50 detected in FLIPR, hOX2R) and 47 nM on hOX1R (IC50 detected in FLIPR, hOX1R).
For `Cc1ccc(-c2ncccn2)c(C(=O)N2C3CCC(COc4ncc(Cl)cc4F)C2CC3)c1` (stereo not shown) [Example 25], the IC50 was found to be 124 nM on hOX2R (setting [1]) and 113 nM on hOX1R (setting [2]).
On to `O=C(c1cc(Cl)ccc1-n1ccnn1)N1C2CC[C@H]1CC[C@@H]2COc1ccc(F)cn1` [Example 19], for which the IC50 came out at 372 nM on hOX2R (setting [1]) and 41 nM on hOX1R (setting [2]).
For `Cc1ccc(-c2ncccn2)c(C(=O)N2C3CCC2[C@@H](COc2ccccn2)CC3)c1` (stereo partly shown) [Example 23], the IC50 on hOX2R (IC50 detected in FLIPR, hOX2R) was 97 nM; on hOX1R (IC50 detected in FLIPR, hOX1R) it was 45 nM.
For `Cc1ccc(-n2cccn2)c(C(=O)N2C3CC[C@H]2CC[C@@H]3COc2ccc(F)cn2)c1` [Example 20], the IC50 on hOX2R (IC50 detected in FLIPR, hOX2R) was 26 nM; on hOX1R (IC50 detected in FLIPR, hOX1R), 7 nM.
On to `Cc1ccc(-c2ncccn2)c(C(=O)N2C3CCC2C(F)(COc2ccc(F)cn2)CC3)c1` (stereo not shown) [Example 26], for which the IC50 was found to be 37 nM at hOX2R (setting [1]) and 48 nM on hOX1R (setting [2]).
With `O=C(c1cc(F)ccc1-n1nccn1)N1C2CC[C@H]1CC[C@@H]2COc1ccc(F)cn1` [Example 14], the IC50 on hOX2R (IC50 detected in FLIPR, hOX2R) was 20 nM; at hOX1R (IC50 detected in FLIPR, hOX1R), 16 nM.
Consider `Cc1ccc(-c2ccccc2)c(C(=O)N2C3CC[C@H]2CC[C@@H]3COc2ccc(F)cn2)c1` [Example 12], for which the IC50 at hOX2R (IC50 detected in FLIPR, hOX2R) was determined as 206 nM; at hOX1R (IC50 detected in FLIPR, hOX1R), 219 nM.
Take `Cc1nc(C(=O)N2C3CC[C@H]2CC[C@@H]3COc2ccc(F)cn2)c(-c2ccccc2)s1` [Example 10]: the IC50 at hOX2R (IC50 detected in FLIPR, hOX2R) worked out at 73 nM; at hOX1R (IC50 detected in FLIPR, hOX1R), 29 nM.

Usually IC50 stands for the concentration that gives 50% inhibition.
